Source: article PMC3530194 (Bioorganic & medicinal chemistry letters, 2012)

What was measured:
[1] = format: in vitro ADME, bovine
LS174T indicator cells = format: cell-based; conditions: human cells (LS174T), over the first 12 hours; Fig. 3A
[2] = cited from earlier work
[3] = format: in vitro ADME, bovine; conditions: after 24 hours of serum pretreatment; Fig. 2D
[4] = test system: hereditary inclusion body myopathy mouse model; conditions: cited from earlier work
[5] = Fig. 2E; for surface expression of azido-modified sialic acids: after 24 hours of FBS pre-treatment; for loss of surface azido-sialic acid signal: first four hours of FBS treatment

Compound	increased sialic acid production compared among analogs (LS174T indicator cells)	surface expression of azido-modified sialic acids [5]	loss of surface azido-sialic acid signal [5]	other results
CCCC(=O)OC1O[C@H](CO)[C@@H](OC(=O)CCC)[C@H](OC(=O)CCC)[C@@H]1NC(C)=O (stereo partly shown) [1,3,4-O-Bu3ManNAc]	statistically identical levels	–	–	reduction in analog-enhanced sialic acid production ([1]; after four hours of serum treatment, Fig. 2C): only a relatively minor reduction; side effects such as cytotoxicity [2]: negligible
CCCC(=O)OC[C@H]1OC(O)[C@@H](NC(C)=O)[C@@H](OC(=O)CCC)[C@@H]1OC(=O)CCC (stereo partly shown) [3,4,6-O-Bu3ManNAc]	statistically identical levels	–	–	loss of analog-enhanced cell growth inhibition [3]: complete reversal
CC(=O)N[C@@H]1C(OC(C)=O)O[C@H](COC(C)=O)[C@@H](OC(C)=O)[C@@H]1OC(C)=O (stereo partly shown) [Ac4ManNAc, reference compound]	–	–	–	serum inactivation of analog, read as sialic acid production in indicator cells ([1]; FBS (100% serum) pre-incubation, Fig. 2A): refractory to serum inactivation; time of peak sialic acid production after administration [4]: peaked as soon as four hours after administration
CC(=O)OC[C@H]1OC(OC(C)=O)[C@@H](NC(=O)CN=[N+]=[N-])[C@@H](OC(C)=O)[C@@H]1OC(C)=O (stereo partly shown) [Ac4ManNAz, reference compound]	–	reduction, but not complete reversal	refractory to a loss of signal	–
CCCC(=O)OCC1OC(OC(=O)CCC)C(NC(C)=O)[C@@H](OC(=O)CCC)[C@@H]1OC(=O)CCC (stereo partly shown) [Bu4ManNAc]	statistically identical levels	–	–	reversion of analog-enhanced sialic acid production in indicator cells ([1]; lower concentrations of FBS (10% or 25%), Fig. 2B): did not result in a statistically significant reversion
CCCC(=O)OC[C@H]1OC(OC(=O)CCC)[C@@H](NC(=O)CN=[N+]=[N-])[C@@H](OC(=O)CCC)[C@@H]1OC(=O)CCC (stereo partly shown) [Bu4ManNAz]	–	reduction, but not complete reversal	refractory to a loss of signal	–
